Source: doi:10.1101/2023.10.14.562361v1 (biorxiv, 2023)

What was measured:
Smurf1C2 = assay: UbFluor fluorescence polarization assay; assay type: biochemical, Homo sapiens; settings: 0.5 µM enzyme, 2 µM UbFluor, pH 7.4, 0.01% Tween20
Smurf1 HECT [1] = target: T1, Smurf1 HECT (Homo sapiens, UniProt Q9HCE7); assay: biolayer interferometry; assay type: binding
Smurf1 HECT [2] = target: T1, Smurf1 HECT; assay: UbFluor fluorescence polarization assay; assay type: biochemical
Smurf1 FL = Smurf1 FL (Homo sapiens, UniProt Q9HCE7); assay: UbFluor fluorescence polarization assay; assay type: biochemical
Sequence of Smurf1 FL (Q9HCE7 whole entry): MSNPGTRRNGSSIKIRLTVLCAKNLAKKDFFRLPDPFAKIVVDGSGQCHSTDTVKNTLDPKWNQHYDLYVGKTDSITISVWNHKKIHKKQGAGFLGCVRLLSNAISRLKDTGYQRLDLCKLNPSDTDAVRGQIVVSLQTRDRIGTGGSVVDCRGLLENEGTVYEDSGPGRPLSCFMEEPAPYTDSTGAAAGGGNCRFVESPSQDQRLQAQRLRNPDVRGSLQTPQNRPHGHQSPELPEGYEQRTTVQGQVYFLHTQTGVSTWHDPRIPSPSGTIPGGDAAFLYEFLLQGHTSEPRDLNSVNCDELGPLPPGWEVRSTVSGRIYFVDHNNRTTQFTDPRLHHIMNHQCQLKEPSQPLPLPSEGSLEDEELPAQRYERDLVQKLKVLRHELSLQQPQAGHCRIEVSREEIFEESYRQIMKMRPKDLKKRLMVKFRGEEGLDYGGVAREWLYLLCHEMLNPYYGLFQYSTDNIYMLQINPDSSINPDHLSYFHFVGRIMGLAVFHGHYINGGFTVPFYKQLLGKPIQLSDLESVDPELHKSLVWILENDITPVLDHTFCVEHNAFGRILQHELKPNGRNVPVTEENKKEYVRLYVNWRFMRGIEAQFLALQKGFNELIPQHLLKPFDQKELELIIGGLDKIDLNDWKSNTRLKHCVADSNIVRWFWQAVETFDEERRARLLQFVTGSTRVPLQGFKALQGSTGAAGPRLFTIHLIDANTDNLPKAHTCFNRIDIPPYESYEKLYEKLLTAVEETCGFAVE

T1 sequence (Q9HCE7 341-757): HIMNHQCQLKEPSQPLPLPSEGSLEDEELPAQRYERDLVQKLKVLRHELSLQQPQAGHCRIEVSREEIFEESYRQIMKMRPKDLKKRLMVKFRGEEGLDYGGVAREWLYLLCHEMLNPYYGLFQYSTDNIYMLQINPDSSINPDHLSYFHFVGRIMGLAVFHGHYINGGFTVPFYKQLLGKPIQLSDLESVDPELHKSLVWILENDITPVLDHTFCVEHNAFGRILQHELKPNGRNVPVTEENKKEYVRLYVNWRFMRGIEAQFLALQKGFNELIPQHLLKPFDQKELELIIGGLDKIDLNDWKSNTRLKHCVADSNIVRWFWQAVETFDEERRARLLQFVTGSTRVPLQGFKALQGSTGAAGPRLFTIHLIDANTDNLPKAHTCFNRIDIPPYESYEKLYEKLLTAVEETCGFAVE

| IC50 (Smurf1C2) [nM] | Kd (Smurf1 HECT [1]) [nM] | IC50 (Smurf1 HECT [2]) [nM] | IC50 (Smurf1 FL) [nM] | Structure (SMILES) |
| --- | --- | --- | --- | --- |
| 3100 | 54500 ± 2000 |  |  | Cc1c(C(=O)Nc2c(C)n(C)n(C3CCCCC3)c2=O)nnn1-c1ccc(OC(F)(F)F)cc1Cl [compound 2] |
| 140 | 25800 ± 2200 | 450 | 230 | Cc1c(NC(=O)c2noc3c2CCSc2cc(OC(F)(F)F)ccc2-3)c(=O)n(C2CCCCC2)n1C [compound 1] |
